According to paper PMC6032158, “Structure–Activity Relationship of Piplartine and Synthetic Analogues against Schistosoma mansoni and Cytotoxicity to Mammalian Cells” (International Journal of Molecular Sciences, 2018):

Key:
J774A.1 cells = test: Cell death mechanism, annexin-V FITC / propidium iodide staining by flow cytometry; assay type: cell-based, mouse; details: J774A.1, 24 h; piplartine 25 μg/mL, 14B 400 μg/mL
Procedure: Cells were then treated with 2 µL of annexin-V FITC (Apoptosis Detection Kit; BD Biosciences, Franklin Lakes, NJ, USA) and 2 µL of propidium iodide (PI, 50 µg/mL) for 15 min in the dark at room temperature. Next, 100 µL binding buffer was added and samples were analysed by flow cytometry (BD LSFortessa^TM, Franklin Lakes, NJ, USA). A total of 20,000 events were collected per sample.

[1] = system: murine fibroblast (NIH-3T3) cells; test: MTT cytotoxicity assay in murine fibroblasts; assay type: cell-based
Procedure: Next, the medium was removed and various concentrations (25–800 µg/mL) of samples reconstituted in 3% DMSO were applied. DMSO (3%) was used as a control. The plates were incubated for 24 h. Next, 15 µL of MTT solution (5 mg/mL in phosphate buffer) was added to each well and the plates were incubated for 2 h. Medium was discarded and 100 µL of DMSO was added to each well. Absorbance was determined using a spectrophotometer with a microplate reader at 595 nm (Molecular Devices Corporation, Sunnyvale, CA, USA).

[2] = system: 49-day-old S. mansoni adult worms; test: In vitro experiments with adult worms of S. mansoni (mortality, motor activity); assay type: cell-based, Schistosoma mansoni; details: for Dead Worms (%) F / Motor Activity Reduction (%) Significant F / Motor Activity Reduction (%) Slight F: female worms; for Dead Worms (%) M / Motor Activity Reduction (%) Significant M / Motor Activity Reduction (%) Slight M: male worms
Procedure, shortened: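 BH-strain worm pairs recovered from hamsters 49 days post-infection, washed in RPMI 1640 with penicillin, streptomycin and amphotericin B, and cultured as mated pairs with or without drug for 96 h. Motor activity changes and death were scored by microscopy.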

[3] = system: mouse BALB/cN macrophage (J774A.1) cell line; test: Cell viability by flow cytometry in macrophages; details: 24 h, 25, 100 and 400 µg/mL, vs DMEM control

OO [Compound H2O2, hydrogen peroxide, reference compound]
annexin-V FITC staining (apoptosis marker) vs DMEM negative control (in words) (J774A.1 cells): significant (p < 0.05) increase in annexin-V FITC fluorescence intensity

O=C(/C=C/c1ccc([N+](=O)[O-])cc1)N(C(=O)NC1CCCCC1)C1CCCCC1 [Compound 6B]
effect on NIH-3T3 cell viability (in words) ([1]; MTT, 24 h exposure, 25 to 800 µg/mL): did not exert significant effects on mammalian cell viability at the tested concentrations
Emax at 800 µg/mL ([1]; Mus musculus, NIH3T3, 24 h, decrease in cell viability at the maximum concentration tested (800 μg/mL), NIH-3T3, 24 h): < 50%
Dead Worms (%) F ([2]; 5 µM, 14 h): 0%
Motor Activity Reduction (%) Significant F ([2]; 5 µM, 14 h): 0%
Motor Activity Reduction (%) Slight F ([2]; 5 µM, 14 h): 0%
Dead Worms (%) M ([2]; 5 µM, 14 h): 0%
Motor Activity Reduction (%) Significant M ([2]; 5 µM, 14 h): 0%
Motor Activity Reduction (%) Slight M ([2]; 5 µM, 14 h): 0%
Dead Worms (%) F ([2]; 5 µM, 48 h): 0%
Motor Activity Reduction (%) Significant F ([2]; 5 µM, 48 h): 0%
Motor Activity Reduction (%) Slight F ([2]; 5 µM, 48 h): 0%
Dead Worms (%) M ([2]; 5 µM, 48 h): 0%
Motor Activity Reduction (%) Significant M ([2]; 5 µM, 48 h): 0%
Motor Activity Reduction (%) Slight M ([2]; 5 µM, 48 h): 0%
Dead Worms (%) F ([2]; 5 µM, 72 h): 0%
Motor Activity Reduction (%) Significant F ([2]; 5 µM, 72 h): 0%
Motor Activity Reduction (%) Slight F ([2]; 5 µM, 72 h): 0%
Dead Worms (%) M ([2]; 5 µM, 72 h): 0%
Motor Activity Reduction (%) Significant M ([2]; 5 µM, 72 h): 0%
Motor Activity Reduction (%) Slight M ([2]; 5 µM, 72 h): 0%
Dead Worms (%) F ([2]; 5 µM, 96 h): 0%
Motor Activity Reduction (%) Significant F ([2]; 5 µM, 96 h): 0%
Motor Activity Reduction (%) Slight F ([2]; 5 µM, 96 h): 0%
Dead Worms (%) M ([2]; 5 µM, 96 h): 0%
Motor Activity Reduction (%) Significant M ([2]; 5 µM, 96 h): 0%
Motor Activity Reduction (%) Slight M ([2]; 5 µM, 96 h): 0%
Dead Worms (%) F ([2]; 10 µM, 24 h): 0%
Motor Activity Reduction (%) Significant F ([2]; 10 µM, 24 h): 0%
Motor Activity Reduction (%) Slight F ([2]; 10 µM, 24 h): 0%
Dead Worms (%) M ([2]; 10 µM, 24 h): 0%
Motor Activity Reduction (%) Significant M ([2]; 10 µM, 24 h): 0%
Motor Activity Reduction (%) Slight M ([2]; 10 µM, 24 h): 0%
Dead Worms (%) F ([2]; 10 µM, 48 h): 0%
Motor Activity Reduction (%) Significant F ([2]; 10 µM, 48 h): 0%
Motor Activity Reduction (%) Slight F ([2]; 10 µM, 48 h): 0%
Dead Worms (%) M ([2]; 10 µM, 48 h): 0%
Motor Activity Reduction (%) Significant M ([2]; 10 µM, 48 h): 0%
Motor Activity Reduction (%) Slight M ([2]; 10 µM, 48 h): 0%
Dead Worms (%) F ([2]; 10 µM, 72 h): 0%
Motor Activity Reduction (%) Significant F ([2]; 10 µM, 72 h): 0%
Motor Activity Reduction (%) Slight F ([2]; 10 µM, 72 h): 0%
Dead Worms (%) M ([2]; 10 µM, 72 h): 0%
Motor Activity Reduction (%) Significant M ([2]; 10 µM, 72 h): 0%
Motor Activity Reduction (%) Slight M ([2]; 10 µM, 72 h): 0%
Dead Worms (%) F ([2]; 10 µM, 96 h): 0%
Motor Activity Reduction (%) Significant F ([2]; 10 µM, 96 h): 0%
Motor Activity Reduction (%) Slight F ([2]; 10 µM, 96 h): 0%
Dead Worms (%) M ([2]; 10 µM, 96 h): 0%
Motor Activity Reduction (%) Significant M ([2]; 10 µM, 96 h): 0%
Motor Activity Reduction (%) Slight M ([2]; 10 µM, 96 h): 0%
Dead Worms (%) F ([2]; 25 µM, 24 h): 0%
Motor Activity Reduction (%) Significant F ([2]; 25 µM, 24 h): 0%
Motor Activity Reduction (%) Slight F ([2]; 25 µM, 24 h): 0%
Dead Worms (%) M ([2]; 25 µM, 24 h): 0%
Motor Activity Reduction (%) Significant M ([2]; 25 µM, 24 h): 0%
Motor Activity Reduction (%) Slight M ([2]; 25 µM, 24 h): 0%
Dead Worms (%) F ([2]; 25 µM, 48 h): 0%
Motor Activity Reduction (%) Significant F ([2]; 25 µM, 48 h): 0%
Motor Activity Reduction (%) Slight F ([2]; 25 µM, 48 h): 0%
Dead Worms (%) M ([2]; 25 µM, 48 h): 0%
Motor Activity Reduction (%) Significant M ([2]; 25 µM, 48 h): 0%
Motor Activity Reduction (%) Slight M ([2]; 25 µM, 48 h): 0%
Dead Worms (%) F ([2]; 25 µM, 72 h): 0%
Motor Activity Reduction (%) Significant F ([2]; 25 µM, 72 h): 0%
Motor Activity Reduction (%) Slight F ([2]; 25 µM, 72 h): 0%
Dead Worms (%) M ([2]; 25 µM, 72 h): 0%
Motor Activity Reduction (%) Significant M ([2]; 25 µM, 72 h): 0%
Motor Activity Reduction (%) Slight M ([2]; 25 µM, 72 h): 0%
Dead Worms (%) F ([2]; 25 µM, 96 h): 0%
Motor Activity Reduction (%) Significant F ([2]; 25 µM, 96 h): 0%
Motor Activity Reduction (%) Slight F ([2]; 25 µM, 96 h): 0%
Dead Worms (%) M ([2]; 25 µM, 96 h): 0%
Motor Activity Reduction (%) Significant M ([2]; 25 µM, 96 h): 0%
Motor Activity Reduction (%) Slight M ([2]; 25 µM, 96 h): 0%
Dead Worms (%) F ([2]; 50 µM, 24 h): 0%
Motor Activity Reduction (%) Significant F ([2]; 50 µM, 24 h): 0%
Motor Activity Reduction (%) Slight F ([2]; 50 µM, 24 h): 0%
Dead Worms (%) M ([2]; 50 µM, 24 h): 0%
Motor Activity Reduction (%) Significant M ([2]; 50 µM, 24 h): 0%
Motor Activity Reduction (%) Slight M ([2]; 50 µM, 24 h): 0%
Dead Worms (%) F ([2]; 50 µM, 48 h): 0%
Motor Activity Reduction (%) Significant F ([2]; 50 µM, 48 h): 0%
Motor Activity Reduction (%) Slight F ([2]; 50 µM, 48 h): 0%
Dead Worms (%) M ([2]; 50 µM, 48 h): 0%
Motor Activity Reduction (%) Significant M ([2]; 50 µM, 48 h): 0%
Motor Activity Reduction (%) Slight M ([2]; 50 µM, 48 h): 0%
Dead Worms (%) F ([2]; 50 µM, 72 h): 0%
Motor Activity Reduction (%) Significant F ([2]; 50 µM, 72 h): 0%
Motor Activity Reduction (%) Slight F ([2]; 50 µM, 72 h): 0%
Dead Worms (%) M ([2]; 50 µM, 72 h): 0%
Motor Activity Reduction (%) Significant M ([2]; 50 µM, 72 h): 0%
Motor Activity Reduction (%) Slight M ([2]; 50 µM, 72 h): 0%
Dead Worms (%) F ([2]; 50 µM, 96 h): 0%
Motor Activity Reduction (%) Significant F ([2]; 50 µM, 96 h): 0%
Motor Activity Reduction (%) Slight F ([2]; 50 µM, 96 h): 0%
Dead Worms (%) M ([2]; 50 µM, 96 h): 0%
Motor Activity Reduction (%) Significant M ([2]; 50 µM, 96 h): 0%
Motor Activity Reduction (%) Slight M ([2]; 50 µM, 96 h): 0%
activity against S. mansoni adult worms (in words) ([2]; analogues 50, 25, 10 and 5 μM, piplartine 5 and 10 μM, up to 96 h): did not present biological activity against the S. mansoni parasite
effect on J774A.1 cell viability (in words) [3]: did not reduce cell viability at the same concentrations
